Laboratory results taken from PubChem BioAssay (NCI).
Values joined by “and” are separate entries in the source; they are usually repeats but may differ in a detail not shown here. Equal values may be shown once.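 Cells were grown in 96-well plates and exposed to each compound for 48 hours at five concentrations; endpoints were interpolated linearly between bracketing concentrations, or set to the highest concentration if not reached. GI50 = concentration required for 50% inhibition of growth. Definition used: TGI = concentration required for complete inhibition of growth.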

Key:
Assay in all cases: inhibition of tumour cell growth, NCI panel, 48 h
CAKI-1 renal = test system: CAKI-1 renal
K-562 leukemia = test system: K-562 leukemia
KM12 colon = test system: KM12 colon
MDA-MB-231 breast = test system: MDA-MB-231 breast
MDA-N = test system: MDA-N
MOLT-4 leukemia = test system: MOLT-4 leukemia
NCI/ADR-RES ovarian = test system: NCI/ADR-RES ovarian
OVCAR-5 ovarian = test system: OVCAR-5 ovarian
SF-268 CNS = test system: SF-268 CNS
TK-10 renal = test system: TK-10 renal

| SMILES | TGI (CAKI-1 renal) | TGI (K-562 leukemia) | TGI (KM12 colon) | TGI (MDA-MB-231 breast) | TGI (MDA-N) | TGI (MOLT-4 leukemia) | TGI (NCI/ADR-RES ovarian) | TGI (OVCAR-5 ovarian) | TGI (SF-268 CNS) | TGI (TK-10 renal) | GI50 (CAKI-1 renal) | GI50 (NCI/ADR-RES ovarian) | GI50 (OVCAR-5 ovarian) | GI50 (SF-268 CNS) | GI50 (TK-10 renal) | GI50 (K-562 leukemia) | GI50 (KM12 colon) | GI50 (MDA-MB-231 breast) | GI50 (MOLT-4 leukemia) |
| --- | --- | --- | --- | --- | --- | --- | --- | --- | --- | --- | --- | --- | --- | --- | --- | --- | --- | --- | --- |
| O=c1[nH]c2cc([N+](=O)[O-])c(N/N=C/c3ccc(Cl)cc3Cl)c([N+](=O)[O-])c2[nH]1 | > 100 µM | > 100 µM | 25.8 µM | 60.5 µM | > 100 µM | > 100 µM | > 100 µM | > 100 µM | > 100 µM | > 100 µM |  |  |  |  |  |  |  |  |  |
| O=c1[nH]c(=O)n(CCOc2ccc(Cl)cc2)cc1Nc1ccccc1 | > 100 µM | > 100 µM | > 100 µM |  | > 100 µM | > 100 µM | > 100 µM | > 100 µM | > 100 µM |  |  |  |  |  |  |  |  |  |  |
| C=C1CC2C3C=C(C)C4=CC(=O)CC[C@]4(C)C3CC[C@]2(C)[C@@]1(OC(C)=O)C(C)=O (stereo partly specified) | > 100 µM |  |  |  |  |  | > 100 µM | > 100 µM | > 100 µM | > 100 µM | 2.96 µM | 2.43 µM | > 100 µM | 5.46 µM | > 100 µM |  |  |  |  |
| COc1ccc(N=Cc2ccc(N(CCC#N)S(=O)(=O)c3ccccc3)cc2C)cc1 | > 100 µM | > 100 µM |  |  |  | > 100 µM |  | > 100 µM | > 100 µM | 87.6 µM |  |  |  |  |  |  |  |  |  |
| NC(=O)CCSC(CC(=O)c1ccc(Cl)cc1)c1ccc(Cl)cc1 (stereo unspecified) | 42.6 µM | > 100 µM | 19.6 µM | > 100 µM | 59.8 µM | 35.8 µM | 52.5 µM | > 100 µM | 82.1 µM | > 100 µM |  |  |  |  |  |  |  |  |  |
| CCOC(=O)C12CC(C)=C(C)CC1CCCc1ccccc12 (stereo unspecified) | > 100 µM | 78.2 µM | > 100 µM | 31.5 µM | 86.6 µM | 52.3 µM | > 100 µM | 50.9 µM | > 100 µM | 77.8 µM |  |  |  |  |  |  |  |  |  |
| O=CN1CCC23CC(O)CCC2C1Cc1cc(Oc2nnnn2-c2ccccc2)cc(O)c13 (stereo unspecified) | > 100 µM | > 100 µM | > 100 µM | > 100 µM | > 100 µM | > 100 µM | > 100 µM | > 100 µM | > 100 µM | > 100 µM |  |  |  |  |  |  |  |  |  |
| C[C@H]1CCC/C=C/[C@@H]2C[C@H](O)C[C@H]2[C@H](O)/C=C/C(=O)O1 | 0.0596 µM and 0.199 µM and 0.36 µM |  |  | 0.0821 µM and 0.0399 µM |  |  |  |  | > 63.3 µM | 2.57 µM and 0.362 µM and 1 µM | 0.0227 µM and 0.0545 µM and 0.0438 µM | 0.0476 µM | 0.0857 µM | < 0.0103 µM |  | 0.236 µM | 0.0197 µM | < 0.01 µM and 0.0205 µM and 0.0547 µM | < 0.0165 µM and 0.0481 µM and 0.0564 µM |
| CCC1CCC2c3c([nH]c4ccc(C)cc34)C3C(=O)N(N(C)C)C(=O)C3C2C1 (stereo unspecified) | > 100 µM | > 57 µM | > 100 µM | > 100 µM | 4.52 µM | > 100 µM | > 53.5 µM | > 100 µM | > 59.8 µM | > 100 µM |  |  |  |  |  |  |  |  |  |
| CCOC(=O)/C(=C\NC(C)(C)CO)c1nc2ccccc2[nH]1 | > 100 µM | > 100 µM | > 100 µM |  | > 100 µM | > 100 µM | > 100 µM | > 100 µM | > 100 µM | > 100 µM |  |  |  |  |  |  |  |  |  |
| CCCC[C@H]1C(=O)O[C@H](C)[C@H](NC(=O)c2cccc(NC=O)c2OC)C(=O)O[C@@H](C)[C@@H]1OC(=O)CC(C)C (tested in a mixture with another compound) | 31 µM | 58 µM | 46.9 µM | 29.8 µM | 50.3 µM | 51.4 µM | 61.1 µM | 51.6 µM | 38.5 µM | 30.7 µM |  |  |  |  |  |  |  |  |  |
| O=c1[nH]c(=O)n(CCOCP(=O)(O)O)nc1Br | > 100 µM |  | > 100 µM | > 100 µM | > 100 µM | > 100 µM | > 100 µM | > 100 µM | > 100 µM | > 100 µM |  |  |  |  |  |  |  |  |  |
| N=C(N)c1ccc(N=Nc2c(O)ccc3cc4c(N=Nc5ccc(C(=N)N)cc5)c(O)ccc4cc23)cc1 | > 100 µM | > 100 µM | > 100 µM | > 100 µM | > 100 µM | > 100 µM | > 100 µM | > 100 µM | > 100 µM | > 100 µM |  |  |  |  |  |  |  |  |  |
| C/C(=C\C(=N\NC(=N)N)c1ccccc1)c1ccccc1 | 1.59 µM | 3.88 µM | 3.67 µM |  | 2.7 µM | 2.04 µM | 10.1 µM | 3.35 µM | 2.3 µM | 14.1 µM |  |  |  |  |  |  |  |  |  |
| Cc1cn(Cc2cn(CC3OC(n4cc(C)c(=O)[nH]c4=O)CC3O)nn2)c(=O)[nH]c1=O (stereo unspecified) | > 100 µM |  | > 100 µM | > 100 µM | > 100 µM | > 100 µM | > 100 µM | > 100 µM | > 100 µM | > 100 µM |  |  |  |  |  |  |  |  |  |
| COc1cccc(NC(=O)CC(=O)NN2C(=O)/C(=C/c3ccc(N(CCC#N)CCC#N)cc3)N=C2c2cc([N+](=O)[O-])ccc2Cl)c1 | > 100 µM | > 100 µM | > 100 µM |  |  | > 100 µM |  | 72.3 µM | > 100 µM | > 100 µM |  |  |  |  |  |  |  |  |  |
| C=C1c2nc3ccccc3n2C=C(c2ccc(Cl)cc2)N1c1ccc(OCCN2CCCCC2)cc1 | > 45 µM | > 100 µM | > 100 µM | > 100 µM | 45 µM | > 45 µM and 9.22 µM | > 100 µM | > 100 µM | 45 µM | > 100 µM |  | 2.14 µM | > 100 µM |  | > 100 µM | 1.09 µM | > 100 µM | > 100 µM | 0.553 µM |
| N#Cc1c(-c2ccc(Cl)cc2)c2c([nH]c1=O)-c1cc([N+](=O)[O-])ccc1CCC2 | 52.6 µM | > 100 µM | 55.5 µM | 57.3 µM | > 100 µM | > 100 µM | 55.4 µM | 37.6 µM | 44.2 µM | 69.5 µM |  |  |  |  |  |  |  |  |  |
| O=C1[C@@H](O)[C@@H]2CCCC[C@@]23CCCN13 | > 100 µM | > 100 µM | > 100 µM | > 100 µM | > 100 µM | > 100 µM | > 100 µM | > 100 µM | > 100 µM | > 100 µM |  |  |  |  |  |  |  |  |  |
